Source: patent US11091497B2, “Pyrano[3,4-b]pyrazine kappa opioid receptor ligands for treating addiction, pruritus, pain, and inflammation” (The Rockefeller University, priority 2017, dated 2021)
Where two headings read alike, the source gives them in different places.

How the values were obtained:
[1] = molecular target: T1, human kappa opioid receptors (Homo sapiens, UniProt P41145); experiment: [35S]GTPγS stimulation, membranes from U2OS cells; format: biochemical; conditions: for Emax: read-out: GTPγS stimulation % efficacy
T1 construct: expressed in transfected cells; host or cells: U2OS
T1 sequence (P41145 whole entry): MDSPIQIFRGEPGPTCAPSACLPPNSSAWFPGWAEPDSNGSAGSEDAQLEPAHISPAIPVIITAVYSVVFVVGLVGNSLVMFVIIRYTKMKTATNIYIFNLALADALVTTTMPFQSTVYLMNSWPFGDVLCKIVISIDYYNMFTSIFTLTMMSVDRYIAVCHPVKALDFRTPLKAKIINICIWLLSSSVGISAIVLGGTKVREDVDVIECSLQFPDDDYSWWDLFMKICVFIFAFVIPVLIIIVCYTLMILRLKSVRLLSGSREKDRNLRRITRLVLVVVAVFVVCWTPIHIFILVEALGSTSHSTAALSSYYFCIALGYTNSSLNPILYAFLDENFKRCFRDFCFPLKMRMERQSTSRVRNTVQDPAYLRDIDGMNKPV
Procedure: Membranes from cells stably expressing kappa, mu or delta opioid receptor constructs (PathHunter U2OS hOPRK1, CHO-K1 rOPRM1 and CHO-K1 OPRD1 β-arrestin cell line, DiscoverX, Fremont, Calif., USA) were used. Cells were scraped from tissue culture plates, homogenized with a tissue tearor homogenizer in membrane buffer (10 mM Tris, 100 mM NaCl, and 1 mM EDTA; pH 7.4), and centrifuged at 20,000 g for 30 minutes at 4° C. and frozen at −80° C. until use. Prior to use, the pellets were resuspended in binding buffer (50 mm Tris, 100 mm NaCl, pH 7.4), homogenized with a dounce homogenizer and […] incubated with 1.0 nM of the appropriate tritiated ligand ([^3H]U69,593, [^3H]DAMGO or [^3H]DPDPE for kappa, mu or delta binding, respectively) and the appropriate concentration of compound for 60 minutes at 30° C. Membranes with bound tritiated ligand were collected on Whatman GF/B filter paper (Brandel, Gaithersburg, Md., USA) utilizing a Brandel harvester. Bound tritiated ligand was quantified using a TriCarb-2900TR scintillation counter (Packard, Downers Grove, Ill., USA) following addition of 4 ml ReadySafe scintillation fluid (Beckman Coulter, Indianapolis, Ind., USA). Compiled data for each compound was normalized to the maximal binding in the absence of compound, with non-specific binding subtracted. Curve fitting was done in Microcal Origin 17.0 software using logistic sigmoidal fit, to determine IC50. GTPgammaS Membranes from U2OS cells stably expressing human kappa opioid receptors were used. Cells were scraped from tissue culture plates, homogenized with a tissue tearor homogenizer in membrane buffer (10 mM Tris, 100 mM NaCl, and 1 mM EDTA; pH 7.4), and centrifuged at 20,000 g for 30 minutes at 4° C. and frozen at −80° C. until use. Prior to use, the pellets were resuspended in assay buffer (50 mm Tris, 100 mm NaCl, 5 mM MgCl2, and 1 mM EDTA; pH 7.4) and homogenized with a dounce homogenizer and 50 μg incubated with 0.1 nM [35 S]GTPγS, 10 nM GDP, and the appropriate concentration of agonist for 20 minutes at 30° C. To test inhibition, all samples were incubated with 100 nM U69,593 as well as the appropriate concentration of compound. Membranes with bound [35 S]GTPγS were collected on Whatman GF/B filter paper (Brandel, Gaithersburg, Md., USA) utilizing a Brandel harvester. Bound [35 S]GTPγS was quantified using a TriCarb-2900TR scintillation counter (Packard, Downers Grove, Ill., USA) following addition of 4 mL ReadySafe scintillation fluid (Beckman Coulter, Indianapolis, Ind., USA). […] For each compound, curve fitting was done in Microcal Origin 17.0 software using logistic sigmoidal fit, to determine EC50 and maximal percent stimulation, which in turn was normalized to the maximal percent stimulation of the test full agonist compound U69,593 to determine % efficacy. β2-Arrestin Experiments were conducted using the PathHunter Detection Kit obtained from DiscoverX. Cells stably expressing kappa, mu or delta opioid receptor constructs (PathHunter U2OS hOPRK1, CHO-K1 rOPRM1 and CHO-K1 OPRD1 β-arrestin cell line, DiscoverX, Fremont, Calif., USA) were plated in 96- or 384-well plates. Cells were stimulated with the compounds for 90 minutes at 37° C. To test inhibition, all samples were incubated with 100 nM U69,593 as well as the appropriate concentration of compound. Cells were then incubated for 60 minutes in the presence of galoctosidase substrate, yielding chemiluminescent product. Chemiluminescence was measured using a Synergy Neo microplate reader (BioTek, Winooski, Vt., USA). Antagonism assays were done in the same manner, in the presence of 300 nM U69,593, 1 μM DAMGO or 1 μM DPDPE for KOP-R, MOP-R or DOP-R assays, respectively.

[2] = molecular target: T2, kappa opioid receptor (PathHunter U2OS hOPRK1 β-arrestin cell line) (Homo sapiens, UniProt P41145); experiment: β-arrestin coupling (PathHunter Detection Kit); format: cell-based; conditions: for Emax at 10 µM: U2OS
T2 construct: host or cells: U2OS (PathHunter U2OS hOPRK1 β-arrestin cell line)
T2 sequence (P41145 whole entry): as above
Procedure: (§1) Membranes from cells stably expressing kappa, mu or delta opioid receptor constructs (PathHunter U2OS hOPRK1, CHO-K1 rOPRM1 and CHO-K1 OPRD1 β-arrestin cell line, DiscoverX, Fremont, Calif., USA) were used. Cells were scraped from tissue culture plates, homogenized with a tissue tearor homogenizer in membrane buffer (10 mM Tris, 100 mM NaCl, and 1 mM EDTA; pH 7.4), and centrifuged at 20,000 g for 30 minutes at 4° C. and frozen at −80° C. until use. Prior to use, the pellets were resuspended in binding buffer (50 mm Tris, 100 mm NaCl, pH 7.4), homogenized with a dounce homogenizer and […] incubated with 1.0 nM of the appropriate tritiated ligand ([^3H]U69,593, [^3H]DAMGO or [^3H]DPDPE for kappa, mu or delta binding, respectively) and the appropriate concentration of compound for 60 minutes at 30° C. Membranes with bound tritiated ligand were collected on Whatman GF/B filter paper (Brandel, Gaithersburg, Md., USA) utilizing a Brandel harvester. Bound tritiated ligand was quantified using a TriCarb-2900TR scintillation counter (Packard, Downers Grove, Ill., USA) following addition of 4 ml ReadySafe scintillation fluid (Beckman Coulter, Indianapolis, Ind., USA). Compiled data for each compound was normalized to the maximal binding in the absence of compound, with non-specific binding subtracted. Curve fitting was done in Microcal Origin 17.0 software using logistic sigmoidal fit, to determine IC50. GTPgammaS Membranes from U2OS cells stably expressing human kappa opioid receptors were used. Cells were scraped from tissue culture plates, homogenized with a tissue tearor homogenizer in membrane buffer (10 mM Tris, 100 mM NaCl, and 1 mM EDTA; pH 7.4), and centrifuged at 20,000 g for 30 minutes at 4° C. and frozen at −80° C. until use. Prior to use, the pellets were resuspended in assay buffer (50 mm Tris, 100 mm NaCl, 5 mM MgCl2, and 1 mM EDTA; pH 7.4) and homogenized with a dounce homogenizer and 50 μg incubated with 0.1 nM [35 S]GTPγS, 10 nM GDP, and the appropriate concentration of agonist for 20 minutes at 30° C. To test inhibition, all samples were incubated with 100 nM U69,593 as well as the appropriate concentration of compound. Membranes with bound [35 S]GTPγS were collected on Whatman GF/B filter paper (Brandel, Gaithersburg, Md., USA) utilizing a Brandel harvester. Bound [35 S]GTPγS was quantified using a TriCarb-2900TR scintillation counter (Packard, Downers Grove, Ill., USA) following addition of 4 mL ReadySafe scintillation fluid (Beckman Coulter, Indianapolis, Ind., USA). […] NA indicates not applicable. For each compound, curve fitting was done in Microcal Origin 17.0 software using logistic sigmoidal fit, to determine EC50 and maximal percent stimulation, which in turn was normalized to the maximal percent stimulation of the test full agonist compound U69,593 to determine % efficacy. β2-Arrestin Experiments were conducted using the PathHunter Detection Kit obtained from DiscoverX. Cells stably expressing kappa, mu or delta opioid receptor constructs (PathHunter U2OS hOPRK1, CHO-K1 rOPRM1 and CHO-K1 OPRD1 β-arrestin cell line, DiscoverX, Fremont, Calif., USA) were plated in 96- or 384-well plates. Cells were stimulated with the compounds for 90 minutes at 37° C. To test inhibition, all samples were incubated with 100 nM U69,593 as well as the appropriate concentration of compound. Cells were then incubated for 60 minutes in the presence of galoctosidase substrate, yielding chemiluminescent product. Chemiluminescence was measured using a Synergy Neo microplate reader (BioTek, Winooski, Vt., USA). Antagonism assays were done in the same manner, in the presence of 300 nM U69,593, 1 μM DAMGO or 1 μM DPDPE for KOP-R, MOP-R or DOP-R assays, respectively. […] NA indicates not applicable. […]

[3] = molecular target: T3, kappa opioid receptor (PathHunter U2OS hOPRK1 membranes) (Homo sapiens, UniProt P41145); experiment: Tritiated U69,593 binding for KOP-R membranes
T3 construct: host or cells: U2OS (PathHunter U2OS hOPRK1 β-arrestin cell line)
T3 sequence (P41145 whole entry): as above
Procedure: Tritiated U69,593 binding for KOP-R membranes; tritiated DAMGO binding for MOP-R membranes; and tritiated DPDPE binding for DOP-R membranes:
as §1

[4] = read-out: β-arrestin coupling % efficacy

Row | Compound | EC50 [1] [µM] | Emax [1] [%] | β-arrestin coupling % efficacy ([2]; maximal, normalized to U69,593, No stim = no stimulation at highest dose tested, 10,000 nM) | IC50 [3] [µM] | Emax at 10 µM ([2]; read-out: β-arrestin coupling % efficacy at 10 μM) [%] | IC50 ([3]; 1.0 nM [3H]U69,593, 60 minutes at 30° C., read-out: Binding IC50) [µM] | EC50 [2] [µM] | Emax at 10 µM [2, 4] [%]
1 | O=C(Cc1ccc(Cl)c(Cl)c1)N1CCN(CC2CCC2)[C@@H]2COC[C@H](N3CCCC3)[C@H]21 (single isomer, unassigned) [Example 5A55A] | 0.03 | 84 | No stim | 0.094 |  |  |  | 
2 | O=C(Cc1ccc(Cl)cc1)N1CCN[C@@H]2COC[C@H](N3CCCC3)[C@H]21 (racemic) [Example 5A66] | 0.566 | 140 |  |  | 20 | 0.456 |  | 
3 | O=C(Cc1ccc(Cl)c(Cl)c1)N1CCN(S(=O)(=O)C2CC2)[C@@H]2COC[C@H](N3CCCC3)[C@H]21 (racemic) [Example 5A52] | 0.003 | 101 |  | 0.0051 |  |  | 3.3 | 79
4 | Cc1ccc(CC(=O)N2CCN[C@@H]3COC[C@H](N4CCCC4)[C@H]32)cc1C(F)(F)F (racemic) [Example 5A47] | 0.009 | 84 |  | 0.031 |  |  | 4.9 | 78
